Results on four sequences are retold here after patent US20220178931A1, “Sensor” (The University of Bristol, priority 2019, published 2022).

Usually Kd stands for the equilibrium constant for the complex coming apart. Low values mean a tighter complex, high ones a looser complex.

One assay in a line: DPH reporter dye binding to alpha-helical barrel lumen (fluorescence titration). Particulars: DPH 1 μM incubated with alpha-helical barrel 0.5-500 μM for up to 2 hours; fluorescent signal. Here is the method:
(§1) The dyes 1,6-diphenyl-1,3,5-hexatriene (DPH) and 6-propionyl-2-dimethylaminonaphthalene (prodan) were assayed against a number of alpha-helical barrels to determine their dissociation constants, KD. DPH or prodan (1 μM) was incubated with varying concentrations of alpha-helical barrel (0.5-500 μM) for up to 2 hours, and the fluorescent signal measured at the corresponding emission wavelength.
Consider “GKIEQILQKIEKILQKIEWILQKIEQILQG [CC-Pent, alpha helix self-assembling into alpha-helical barrel]”, for which the Kd was 22.4 ± 4.3 µM.
The same measure, in the same setting: then “GEIAQALREIAKALREIAWALREIAQALRG [CC-Hept, 7 helices in barrel]”, with 8.9 ± 2.2 µM.
The same measure, in the same setting: under “GELKAIAQELKAIAKELKAIAWELKAIAQG [CC-Hex, 6 helices in barrel]” stands 7.1 ± 1.3 µM; under “GEIAKSLKEIAKSLKEIAWSLKEIAKSLKG [CC-Hex2, 6 helices in barrel]”, 9.5 ± 1.1 µM.

A further assay in a line: DPH displacement from alpha-helical barrel, competitive inhibition assay, analyte palmitic acid. Type of assay: binding. Particulars: barrel incubated with DPH or TMA-DPH; analyte 0.05-300 μM; fluorescence; read-out: Palmitic acid K1. The method, then:
(§2) The four analytes below were selected based on having hydrophobic properties and being able to adopt an elongate configuration, as these were postulated to have the best chance of displacing a reporter dye.
(§3) DPH was used as the reporter dye, and displacement of DPH was recorded using a standard competitive inhibition assay. In other words, the ability of an analyte to inhibit DPH binding was recorded by the inhibition constant Ki. Alpha-helical barrels were incubated with DPH, or its cationic variant 1-(4-trimethylammoniumphenyl)-6-phenyl-1,3,5-hexatriene p-toluenesulfonate (TMA-DPH). Analyte was added (0.05-300 μM) and the fluorescence signal measured.
With “GKIEQILQKIEKILQKIEWILQKIEQILQG [CC-Pent, alpha helix self-assembling into alpha-helical barrel]”, the Ki was found to be 1.1 ± 0.5 µM.
Still for that read-out and setting: under “GEIAQALREIAKALREIAWALREIAQALRG [CC-Hept, 7 helices in barrel]” stands 0.9 ± 0.3 µM; under “GELKAIAQELKAIAKELKAIAWELKAIAQG [CC-Hex, 6 helices in barrel]”, 1 ± 0.3 µM; under “GEIAKSLKEIAKSLKEIAWSLKEIAKSLKG [CC-Hex2, 6 helices in barrel]”, 1.1 ± 0.3 µM.

The nature of the next assay: DPH displacement from alpha-helical barrel, competitive inhibition assay, analyte farnesol. Particulars: barrel incubated with DPH or TMA-DPH; analyte 0.05-300 μM; fluorescence; dash = no competitive binding observed; read-out: Famesol K1. Here is the method:
as §2, §3
As for “GKIEQILQKIEKILQKIEWILQKIEQILQG [CC-Pent, alpha helix self-assembling into alpha-helical barrel]”, the Ki is above 300 µM.
As for “GEIAQALREIAKALREIAWALREIAQALRG [CC-Hept, 7 helices in barrel]”, the Ki came out at 0.6 ± 0.2 µM.
Turning to “GELKAIAQELKAIAKELKAIAWELKAIAQG [CC-Hex, 6 helices in barrel]”, the Ki was 23.9 ± 2.4 µM.
Same read-out and setting: then “GEIAKSLKEIAKSLKEIAWSLKEIAKSLKG [CC-Hex2, 6 helices in barrel]”, with 8.6 ± 1.3 µM.

The next assay in a line: DPH displacement from alpha-helical barrel, competitive inhibition assay, analyte retinol. Type of assay: binding. Particulars: barrel incubated with DPH or TMA-DPH; analyte 0.05-300 μM; fluorescence; read-out: Retinol K1. Here is the method: as §2, §3
With “GKIEQILQKIEKILQKIEWILQKIEQILQG [CC-Pent, alpha helix self-assembling into alpha-helical barrel]”, the Ki turned out to be 14.8 ± 4.1 µM.
Still for that read-out and setting: under “GEIAQALREIAKALREIAWALREIAQALRG [CC-Hept, 7 helices in barrel]” stands 4 ± 0.7 µM.
Consider “GELKAIAQELKAIAKELKAIAWELKAIAQG [CC-Hex, 6 helices in barrel]”, for which the Ki came to 6.4 ± 3.2 µM.
Still for that read-out and setting: then “GEIAKSLKEIAKSLKEIAWSLKEIAKSLKG [CC-Hex2, 6 helices in barrel]”, with 4.6 ± 1.9 µM.

The nature of the next assay: DPH displacement from alpha-helical barrel, competitive inhibition assay, analyte beta-carotene. Particulars: barrel incubated with DPH or TMA-DPH; analyte 0.05-300 μM; fluorescence; dash = no competitive binding observed; read-out: B-carotene K1. The method, then: as §2, §3
For “GKIEQILQKIEKILQKIEWILQKIEQILQG [CC-Pent, alpha helix self-assembling into alpha-helical barrel]”, the Ki is above 300 µM.
On the same count and under the same terms, under “GEIAQALREIAKALREIAWALREIAQALRG [CC-Hept, 7 helices in barrel]” stands 12.1 ± 5.4 µM; under “GELKAIAQELKAIAKELKAIAWELKAIAQG [CC-Hex, 6 helices in barrel]”, above 300 µM.
For “GEIAKSLKEIAKSLKEIAWSLKEIAKSLKG [CC-Hex2, 6 helices in barrel]”, the Ki is above 300 µM.

A further assay in a line: Prodan reporter dye binding to alpha-helical barrel lumen (fluorescence titration). Particulars: prodan 1 μM incubated with alpha-helical barrel 0.5-500 μM for up to 2 hours; fluorescent signal; dash = did not bind. The method, then:
as §1
As to “GKIEQILQKIEKILQKIEWILQKIEQILQG [CC-Pent, alpha helix self-assembling into alpha-helical barrel]”, the Kd is above 500 µM.
On the same count and under the same terms, then “GEIAQALREIAKALREIAWALREIAQALRG [CC-Hept, 7 helices in barrel]”, with 40.5 ± 4 µM; and “GELKAIAQELKAIAKELKAIAWELKAIAQG [CC-Hex, 6 helices in barrel]”, with above 500 µM; and “GEIAKSLKEIAKSLKEIAWSLKEIAKSLKG [CC-Hex2, 6 helices in barrel]”, with 39.2 ± 6.8 µM.

Still in this assay, the particulars now being: summary of KD table.
For the sequence “GKIEQILQKIEKILQKIEWILQKIEQILQG [CC-Pent, alpha helix self-assembling into alpha-helical barrel]”, the “prodan binding to alpha-helical barrel (in words)” value is on record as “did not bind”.
With “GELKAIAQELKAIAKELKAIAWELKAIAQG [CC-Hex, 6 helices in barrel]”, the “prodan binding to alpha-helical barrel (in words)” value is “did not bind”.
